The target of this assay is T1, PN3 (Homo sapiens, UniProt Q9Y5Y9).
T1 construct: expressed in transfected cells
T1 sequence (Q9Y5Y9 whole entry, species assumed): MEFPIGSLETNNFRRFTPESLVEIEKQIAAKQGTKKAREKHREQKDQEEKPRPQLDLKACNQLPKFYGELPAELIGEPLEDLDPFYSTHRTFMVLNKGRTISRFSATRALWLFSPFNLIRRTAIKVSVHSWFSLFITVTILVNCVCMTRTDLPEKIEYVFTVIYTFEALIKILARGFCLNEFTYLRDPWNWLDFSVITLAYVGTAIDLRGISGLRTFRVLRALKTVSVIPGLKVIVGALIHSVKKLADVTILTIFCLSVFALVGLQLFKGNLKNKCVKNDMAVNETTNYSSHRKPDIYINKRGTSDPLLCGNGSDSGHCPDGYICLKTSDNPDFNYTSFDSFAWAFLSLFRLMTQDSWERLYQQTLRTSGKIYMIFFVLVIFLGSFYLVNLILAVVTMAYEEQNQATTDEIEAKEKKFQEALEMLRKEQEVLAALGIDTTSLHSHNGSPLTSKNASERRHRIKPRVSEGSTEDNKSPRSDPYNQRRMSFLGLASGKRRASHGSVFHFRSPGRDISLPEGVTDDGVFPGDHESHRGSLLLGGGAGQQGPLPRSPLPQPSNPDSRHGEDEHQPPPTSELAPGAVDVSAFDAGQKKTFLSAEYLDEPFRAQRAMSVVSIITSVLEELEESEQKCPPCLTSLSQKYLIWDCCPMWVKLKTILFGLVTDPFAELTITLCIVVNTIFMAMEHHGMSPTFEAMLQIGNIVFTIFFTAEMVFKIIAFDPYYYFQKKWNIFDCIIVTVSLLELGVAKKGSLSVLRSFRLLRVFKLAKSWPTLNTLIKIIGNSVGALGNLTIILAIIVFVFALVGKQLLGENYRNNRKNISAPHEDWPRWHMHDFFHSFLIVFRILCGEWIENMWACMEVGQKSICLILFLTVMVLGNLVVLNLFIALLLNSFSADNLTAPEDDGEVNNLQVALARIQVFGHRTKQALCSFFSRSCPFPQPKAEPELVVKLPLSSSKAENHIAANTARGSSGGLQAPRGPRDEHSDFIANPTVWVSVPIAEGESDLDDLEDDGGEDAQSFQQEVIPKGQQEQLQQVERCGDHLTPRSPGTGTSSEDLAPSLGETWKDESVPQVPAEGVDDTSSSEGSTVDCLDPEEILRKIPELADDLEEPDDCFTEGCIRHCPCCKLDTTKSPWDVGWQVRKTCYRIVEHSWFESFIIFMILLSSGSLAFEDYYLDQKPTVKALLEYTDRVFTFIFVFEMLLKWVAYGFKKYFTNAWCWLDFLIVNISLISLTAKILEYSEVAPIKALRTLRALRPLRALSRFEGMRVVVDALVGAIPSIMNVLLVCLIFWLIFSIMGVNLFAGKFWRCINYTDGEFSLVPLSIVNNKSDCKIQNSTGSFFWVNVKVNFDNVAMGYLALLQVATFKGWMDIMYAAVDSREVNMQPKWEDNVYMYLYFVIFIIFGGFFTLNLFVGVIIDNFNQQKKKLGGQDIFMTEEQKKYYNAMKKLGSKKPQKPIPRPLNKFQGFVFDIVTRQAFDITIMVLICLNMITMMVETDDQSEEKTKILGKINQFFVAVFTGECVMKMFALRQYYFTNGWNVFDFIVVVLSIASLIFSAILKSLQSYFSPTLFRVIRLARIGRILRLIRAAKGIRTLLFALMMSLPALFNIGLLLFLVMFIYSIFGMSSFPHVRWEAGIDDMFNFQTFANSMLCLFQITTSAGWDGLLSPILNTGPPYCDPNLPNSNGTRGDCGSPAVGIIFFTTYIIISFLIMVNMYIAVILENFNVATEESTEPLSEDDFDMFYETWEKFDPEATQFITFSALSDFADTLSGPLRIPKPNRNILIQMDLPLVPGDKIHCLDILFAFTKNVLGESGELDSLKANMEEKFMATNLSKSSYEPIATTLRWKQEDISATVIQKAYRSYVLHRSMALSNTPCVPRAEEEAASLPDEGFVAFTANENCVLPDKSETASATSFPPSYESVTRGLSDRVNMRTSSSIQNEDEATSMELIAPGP
The experiment in a line: 14C Guanidinium Ion Influx Binding Assay (flux assay). Particulars: activity towards PN3, PN3 stably expressed in a host cell line, deltamethrine 10 μM. The class given is cell-based. As to the method:
^14C Guanidinium Ion Influx Binding Assay
PN3 stably expressed in a host cell line were maintained in DMEM with 5% fetal bovine serum and 300 μg/ml G-418. The cells were subcultured and grown to confluence in 96-well plates 24–48 h before each experiment. After the growth medium was removed, the cells were washed with warm buffer (25 mM Hepes-Tris, 135 mM choline chloride, 5.4 mM potassium chloride, 0.98 mM magnesium sulfate, 5.5 mM glucose, and 1 mg/ml BSA, pH 7.4) and incubated in buffer on a 36° C. slide warmer for approximately 10 minutes. Various concentrations of the test compounds or standard sodium channel blockers (10 μM) and then deltamethrine (10 μM) were added to each well. After the cells were exposed to deltamethrine for 5 minutes, 5 μM of ^14C-guanidinium was added, incubated with the radioligand (30–60 min), washed with ice-cold buffer, and dissolved in 0.1N sodium hydroxide. The radioactivity and the protein concentration of each cell lysate were determined by liquid scintillation counting and the protein assay using Pierce BCA reagent.
Turning to `CCCc1c(C(=O)NC(Cc2ccccc2)C(=O)OC)cnn1-c1ccccc1` (stereo not shown) [Compound 39, 3-Phenyl-2-[(1-phenyl-5-propyl-1H-pyrazole-4-carbonyl)-amino]-propionic acid methyl ester], the concentration for half-maximal inhibition (IC50) (usually the concentration that gives 50% inhibition) was in the range of 0.1 to 4 µM.
As for `O=C(NCc1ccc(C(F)(F)F)cc1)c1cnn(-c2ccccc2)c1C(F)(F)F` [Compound 444, 1-Phenyl-5-trifluoromethyl-1H-pyrazole-4-carboxylic acid 4-trifluoromethyl-benzylamide], the IC50 is 4.1 to 10 µM.
The same measure for `CN(C)CCNS(=O)(=O)c1cccc(NC(=O)c2cnn(-c3ccc(Cl)cc3)c2C(F)(F)F)c1` [Compound 1175, 1-(4-Chloro-phenyl)-5-trifluoromethyl-1H-pyrazole-4-carboxylic acid [3-(2-dimethylamino-ethylsulfamoyl)-phenyl]-amide]: 4.1 to 10 µM.
Molecule `O=C(NCCc1cccc(F)c1)c1cnn(-c2ccc(Cl)cc2)c1C(F)(F)F` [Compound 323, 1-(4-Chloro-phenyl)-5-trifluoromethyl-1H-pyrazole-4-carboxylic acid [2-(3-fluoro-phenyl)-ethyl]-amide] displayed an IC50 of 0.1 to 4 µM.
The molecule `O=C(Nc1ccncc1)c1cnn(-c2ccc(Cl)cc2)c1C(F)(F)F` [Compound 23, 1-(4-Chloro-phenyl)-5-trifluoromethyl-1H-pyrazole-4-carboxylic acid pyridin-4-ylamide] yielded an IC50 of 4.1 to 10 µM.
On to `CS(=O)(=O)c1cccc(NC(=O)c2cnn(-c3ccc(Cl)cc3)c2C(F)(F)F)c1` [Compound 154, 1-(4-Chloro-phenyl)-5-trifluoromethyl-1H-pyrazole-4-carboxylic acid (3-methanesulfonyl-phenyl)-amide], for which the half-maximal inhibitory concentration (IC50) lay in the range of 0.1 to 4 µM.
The same measure for `O=C(NCCc1ccc(F)cc1)c1cnn(-c2ccc(Cl)cc2)c1C(F)(F)F` [Compound 411, 1-(4-Chloro-phenyl)-5-trifluoromethyl-1H-pyrazole-4-carboxylic acid [2-(4-fluoro-phenyl)-ethyl]-amide]: 0.1 to 4 µM; for `O=C(NCCc1cccc(Cl)c1)c1cnn(-c2ccc(F)cc2)c1C(F)(F)F` [Compound 480, 1-(4-Fluoro-phenyl)-5-trifluoromethyl-1H-pyrazole-4-carboxylic acid [2-(3-chloro-phenyl)-ethyl]-amide]: 0.1 to 4 µM.
The same measure for `NS(=O)(=O)c1cccc(NC(=O)c2cnn(-c3ccc(Cl)cc3)c2C(F)(F)F)c1` [Compound 1054, 1-(4-Chloro-phenyl)-5-trifluoromethyl-1H-pyrazole-4-carboxylic acid (3-sulfamoyl-phenyl)-amide]: 0.1 to 4 µM; for `O=C(NCCc1ccccc1Cl)c1cnn(-c2ccc(Cl)cc2)c1C(F)(F)F` [Compound 414, 1-(4-Chloro-phenyl)-5-trifluoromethyl-1H-pyrazole-4-carboxylic acid [2-(2-chloro-phenyl)-ethyl]-amide]: 0.1 to 4 µM; for `Cn1nc(-c2ccccc2)cc1NC(=O)c1cnn(-c2ccc(Cl)cc2)c1C(F)(F)F` [Compound 20, 1-(4-Chloro-phenyl)-5-trifluoromethyl-1H-pyrazole-4-carboxylic acid (2-methyl-5-phenyl-2H-pyrazol-3-yl)-amide]: 0.1 to 4 µM.
`O=C(NCCc1cccc(Cl)c1)c1cnn(-c2cccc(Cl)c2)c1` [Compound 449, 1-(3-Chloro-phenyl)-1H-pyrazole-4-carboxylic acid [2-(3-chloro-phenyl)-ethyl]-amide] returned a half-inhibitory concentration (IC50) of 0.1 to 4 µM.
In turn, `O=C(NCCc1ccccc1)c1cnn(-c2ccc(Cl)cc2)c1C(F)(F)F` [Compound 114, 1-(4-Chloro-phenyl)-5-trifluoromethyl-1H-pyrazole-4-carboxylic acid phenethyl-amide] gave a concentration for half-maximal inhibition (IC50) of 10.1 to 30 µM.

The values above are taken from US7223782B2, “Pyrazole-amides and -sulfonamides” (Icagen, Inc., priority 2001, dated 2007).
